According to patent publication US8158165B2, “Preventative treatment and remission of allergic diseases” (CSIR, priority 2006, dated 2012):
Values joined by “and” are separate entries in the source; they are usually repeats but may differ in a detail not shown here. Equal entries are not always repeated.

Columns and labels:
[1] = test system: Ovalbumin-induced bronchoconstriction; conditions: assay protocol reference data; cited from earlier work
IL-8 = IL-8 in bronchoalveolar lavage fluid after ovalbumin challenge (ELISA); format: in vivo, guinea pig; conditions: BALF, WG-1-101 500 mg/kg PO, Phenidone 30 mg/kg IV
Protocol: (§1) The test substance at 500 mg/kg was administered orally twice daily for 3 consecutive days and an additional final dose was added on testing day, then, one hour after final dose, the animals were injected intravenously (1 ml/kg) with a “cocktail”: Indomethacin (10 mg/kg), Mepyramine (2 mg/kg), and Propranolol (100 μg/kg), followed by challenge with ovalbumin 5 minutes later. […] Bronchoalveolar lavage fluid was retrieved after instilling 5 ml of phosphate buffered saline for 2 times. TNF-α, IL-1β and IL-8 in bronchoalveolar lavage fluid (BALF) supernatants were measured with ELISA after ovalbumin challenge. One-way ANOVA followed by Dunnett's Test was applied for comparison between the vehicle control and test compound-treated groups. P<0.05 is considered significant.
(§2) Bronchoalveolar lavage fluid (BALF) samples in the WG-I-101-treated group were prepared for measurements of TNF-α, IL-1β and IL-8 after ovalbumin challenge. One-way ANOVA followed by Dunnett's test was applied for comparison between the vehicle control and test compound-treated groups. P<0.05 is considered significant.
(§3) Bronchoalveolar lavage fluid (BALF) samples in the WG-I-101 treated group were prepared for measurements of TNF-α, IL-1β and IL-8 after Ovalbumin challenge. TNF-α, IL-1β and IL-8 levels of each sample were assessed using TNF-α, IL-1β and IL-8 ELISA kits, respectively. […]

TNF-α = TNF-α in bronchoalveolar lavage fluid after ovalbumin challenge (ELISA); format: in vivo, guinea pig; conditions: BALF, WG-1-101 500 mg/kg PO, Phenidone 30 mg/kg IV
Protocol: as §1, §2, §3

[2] = test system: Ovalbumin-induced bronchoconstriction; assay: Pulmonary, Antigen/Lipoxygenase Metabolites, in Guinea Pigs (intratracheal pressure); format: in vivo, guinea pig
Protocol: Assays were performed at MDS Pharma in Taiwan and reference standards used as an integral part of each assay to ensure the validity of the results obtained. The biological assay employed was the Pulmonary, Antigen/Lipoxygenase Metabolites assay and the diethyl ether extract of Siphonochilus aethiopicus was evaluated for possible activity in this in vivo assay.
WG-I-101 was suspended in 0.5% CMC/0.1% Tween 80. The test substance at a dose of 500 mg/kg was given orally twice daily for 3 consecutive days and an additional final dose was added at one hour before challenge of Ovalbuminon testing day. Dosing volume of 10 ml/kg was used. The formulation is summarized as follows: […]
Groups of 5 Dunkin-Hartley derived male guinea pigs weighing 400±50 g (final day) were employed. The animals were anesthetized with pentobarbital sodium (50 mg/kg IP, with an additional 15 mg/kg IP if needed). An aluminum plate kept at 37° C. through water flow from a bath was placed beneath the test animals to maintain body temperature. The trachea was cannulated and a rodent ventilator (Harvard, USA) was used for artificial ventilation (10 ml/kg, 50 breaths/minute). Through a side-arm of the cannula, intratracheal pressure (ITP) was measured using a Pneumatic pulse transducer (Narco Biosystem, USA). A carotid artery was cannulated (PE50, Clay Adams, USA) for measurements of blood pressure using a Stathem P23×L transducer (Viggo-Spectramed, USA) and heart rate was obtained from lead II ECG. Guinea pigs were sensitized with IP injections of ovalbumin (0.5 μg/0.5 ml/animal) and Al (OH)3 (1 mg/0.5 ml/animal) on days 1 and 8. The animals were then challenged with 15 μg/kg of Ovalbumin (IV) between days 19 and 23 and bronchopulmonary constriction was recorded as an increase in ITP.
as §1
Anesthetized and artificially ventilated guinea pigs previously sensitized were pretreated with Mepyramine 2 mg/kg, Indomethacin 10 mg/kg and Propranol 0.1 mg/kg for 5 minutes; arterial blood pressure (BP, mm Hg), heart rate (HR, beats/min.) and tracheal pressure (TP, cm H2O) were recorded after oral dosing for 3 days. At the end of chronic dosing, antigen (Ovalbumin 15 μg/kg IV)-induced increase in tracheal pressure (ITP) above an initial baseline of 6 cm H2O was then recorded as an indication of bronchoconstriction. Percent (%) inhibition is calculated according to the formula of [Increase in Tracheal Pressure (vehicle-treated)]−[Increase in Tracheal Pressure (test substance-treated)/[Increase in Tracheal Pressure (vehicle-treated)]×100%. • 1. ΔITP: Changes in ITP over corresponding baseline values; (−) Oval: Response to vehicle or test substance alone and before Ovalbumin challenge; (+) Oval: Changes in response to Ovalbumin challenge. • 2. % Control: ITP response to test substance, vehicle expressed in terms of percentage of the ITP response to Ovalbumin (15 μg/kg IV) in the vehicle-treated control (100%). • 3. […]
The trachea is cannulated and the guinea pig ventilated with a Harvard rodent respirator in a closed system. Tracheal pressure is recorded through a side-arm of the cannula connected to a P23ID Statham transducer. […]

IL-1β = IL-1β in bronchoalveolar lavage fluid after ovalbumin challenge (ELISA); format: in vivo, guinea pig; conditions: BALF, WG-1-101 500 mg/kg PO, Phenidone 30 mg/kg IV
Protocol: as §1, §2, §3

CN1[C@@H]2CC[C@H]1C[C@@H](OC(=O)C(CO)c1ccccc1)C2 (stereo partly drawn) [Atropine]
MED mg/kg i.v. [1]: >10 mg/kg

O=C(O)c1cc(=O)c2c(OCC(O)COc3cccc4oc(C(=O)O)cc(=O)c34)cccc2o1 [Cromolyn Sodium]
MED mg/kg i.v. [1]: >100 mg/kg

CCCc1c(OCCCCc2nnn[nH]2)ccc(C(C)=O)c1O [LY-171883, 1[2-hyroxy-3-propyl-4-[4-(1H-tetrazol-5-yl)butoxy]phenyl]ethanone]
MED mg/kg i.v. [1]: 30 mg/kg

CC(Cc1ccc(O)c(O)c1)C(C)Cc1ccc(O)c(O)c1 (stereo not drawn) [NDGA, nordihydroguaretic acid]
MED mg/kg i.v. [1]: 10 mg/kg

O=C1CCN(c2ccccc2)N1 [Phenidone]
IL-8 Cont(pg/ml), X (IL-8; group mean, * P<0.05 vs vehicle): 0.97* pg/ml
IL-8 Cont(pg/ml) (IL-8; individual animals N 1-5): 3.63 pg/ml and 1.22 pg/ml and 0.00 pg/ml (3×)
MED mg/kg i.v. [1]: 30 mg/kg
TNF-α (pg/ml), X (TNF-α; group mean): 7.62 pg/mL
TNF-α (TNF-α; individual animals N 1-5): 12.03 pg/mL and 7.0 pg/mL and 3.79 pg/mL and 8.96 pg/mL and 6.33 pg/mL
% Control ([2]; ITP response to test substance as % of Ovalbumin response in vehicle control): 0%
ΔITP (cm H2O) (+) Oval, X ± SEM ([2]; group mean of 5, response to Ovalbumin 15 μg/kg IV, WG-1-101 500 mg/kg PO bidx3 & qdx1, Phenidone 30 mg/kg IV qdx1): 1.8 ± 0.8 cm H2O
ΔITP (cm H2O) (−) Oval, X ± SEM ([2]; group mean, before Ovalbumin challenge, WG-1-101 500 mg/kg PO bidx3 & qdx1, Phenidone 30 mg/kg IV qdx1): 0 cm H2O
ΔITP (cm H2O) (−) Oval ([2]; individual animals N 1-5, before Ovalbumin challenge, WG-1-101 500 mg/kg PO bidx3 & qdx1, Phenidone 30 mg/kg IV qdx1): 0 cm H2O
ΔITP (cm H2O) (+) Oval ([2]; individual animals N 1-5, response to Ovalbumin 15 μg/kg IV, WG-1-101 500 mg/kg PO bidx3 & qdx1, Phenidone 30 mg/kg IV qdx1): 4.8 cm H2O and 1.8 cm H2O and 1.2 cm H2O and 0.6 cm H2O (2×)
% Inhibition of Ovalbumin-induced bronchoconstriction ([2]; relative to vehicle-treated control, WG-1-101 500 mg/kg PO bidx3 & qdx1, Phenidone 30 mg/kg IV qdx1): (89) %
IL-1β (pg/ml), X (IL-1β; group mean): 1.21 pg/mL
IL-1β (IL-1β; individual animals N 1-5): 3.10 pg/mL and 0.24 pg/mL and 0.46 pg/mL and 2.25 pg/mL and 0.00 pg/mL

CC(C)(C)NCC(O)c1ccc(O)c(CO)c1 (stereo not drawn) [Salbutamol]
MED mg/kg i.v. [1]: 0.1 mg/kg
